# What was measured:
# Assay in all cases: combination Emax (second highest fraction inhibited in the dose matrix, 72 h); higher = more inhibition; extreme values may be limits of the assay
# AM-38 (Glioblastoma) = tested on: AM-38 (Glioblastoma)
# Method in brief: (§1)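 Bliss excess equals the observed combination effect minus the expected value EA + EB − EA·EB, where EA and EB are the effects of each agent alone. Combination Emax is the second-highest inhibition within the matrix. Inhibition was scaled from CellTiter-Glo 2.0 luminescence, with 0 set by vehicle wells and 1 by blank wells, after 72 hours of two-drug dosing of cells plated in 1536-well plates.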
# [1] = tested on: BxPC-3 (Pancreatic Carcinoma)
# Method in brief: as §1
# [2] = tested on: C-33-A (Cervical Carcinoma)
# Method in brief: as §1
# [3] = tested on: CL-11 (Colorectal Carcinoma)
# Method in brief: as §1
# [4] = tested on: CPC-N (Small Cell Lung Carcinoma)
# Method in brief: as §1
# ES6 (Ewing's Sarcoma) = tested on: ES6 (Ewing's Sarcoma)
# Method in brief: as §1
# [5] = tested on: KP-4 (Pancreatic Carcinoma)
# Method in brief: as §1
# [6] = tested on: MDA-MB-415 (Breast Carcinoma)
# Method in brief: as §1
# [7] = tested on: MS-1 (Small Cell Lung Carcinoma)
# Method in brief: as §1
# NB1 (Neuroblastoma) = tested on: NB1 (Neuroblastoma)
# Method in brief: as §1
# [8] = tested on: NCI-H1963 (Small Cell Lung Carcinoma)
# Method in brief: as §1
# NCI-H2373 (Mesothelioma) = tested on: NCI-H2373 (Mesothelioma)
# Method in brief: as §1
# [9] = tested on: NMC-G1 (Low Grade Glioma)
# Method in brief: as §1
# [10] = tested on: OVCAR-3 (Ovarian Carcinoma)
# Method in brief: as §1
# [11] = tested on: RCC-JW (Kidney Carcinoma)
# Method in brief: as §1
# [12] = tested on: SCC-4 (Oral Cavity Carcinoma)
# Method in brief: as §1
# [13] = tested on: SK-CO-1 (Colorectal Carcinoma)
# Method in brief: as §1
# [14] = tested on: SNU-C2B (Colorectal Carcinoma)
# Method in brief: as §1
# UACC-257 (Melanoma) = tested on: UACC-257 (Melanoma)
# Method in brief: as §1
# WM35 (Melanoma) = tested on: WM35 (Melanoma)
# Method in brief: as §1
SMILES,combination Emax (AM-38 (Glioblastoma)),combination Emax [1],combination Emax [2],combination Emax [3],combination Emax [4],combination Emax (ES6 (Ewing's Sarcoma)),combination Emax [5],combination Emax [6],combination Emax [7],combination Emax (NB1 (Neuroblastoma)),combination Emax [8],combination Emax (NCI-H2373 (Mesothelioma)),combination Emax [9],combination Emax [10],combination Emax [11],combination Emax [12],combination Emax [13],combination Emax [14],combination Emax (UACC-257 (Melanoma)),combination Emax (WM35 (Melanoma))
"Cc1cc2ncnn2cc1Nc1ncc2c(n1)n(C1CCOCC1)c(=O)n2C [AZD7648] + C[C@@H]1COCCN1C2=NC(=NC(=C2)C3(CC3)[S@](=N)(=O)C)C4=C5C=CNC5=NC=C4 [AZD6738] (first compound max 10 µM, 7x7, partner max 10 µM)",0.758,0.36,0.913,0.767,0.911,0.601,0.44,0.515,0.728,0.775,0.728,0.674,0.31,0.233,0.568,0.575,0.563,0.63,0.15,0.497
"CC1(C)CCC(CN2CCN(c3ccc(C(=O)NS(=O)(=O)c4ccc(NCC5CCOCC5)c([N+](=O)[O-])c4)c(Oc4cnc5[nH]ccc5c4)c3)CC2)=C(c2ccc(Cl)cc2)C1 [Venetoclax] + C[C@@H]1COCCN1C2=NC(=NC(=C2)C3(CC3)[S@](=N)(=O)C)C4=C5C=CNC5=NC=C4 [AZD6738] (first compound max 1 µM, 7x7, partner max 10 µM)",0.732,0.389,0.92,0.681,0.936,0.571,0.418,0.509,0.702,0.789,0.985,0.591,0.461,0.48,0.469,0.585,0.55,0.592,0.169,0.269
"CCN(CCO)CCCOc1ccc2c(Nc3cc(CC(=O)Nc4cccc(F)c4)[nH]n3)ncnc2c1 [AZD2811] + C[C@@H]1COCCN1C2=NC(=NC(=C2)C3(CC3)[S@](=N)(=O)C)C4=C5C=CNC5=NC=C4 [AZD6738] (first compound max 1 µM, 7x7, partner max 10 µM)",0.747,0.447,0.87,0.777,0.961,0.6,0.611,0.498,0.72,0.79,0.887,0.534,0.372,0.221,0.545,0.633,0.7,0.655,0.16,0.575
"CN(CCO)CC[C@H](CSc1ccccc1)Nc1ccc(S(=O)(=O)NC(=O)c2ccc(N3CCC([C@@H](O)c4ccccc4-c4ccc(Cl)cc4)CC3)cc2)cc1S(=O)(=O)C(F)(F)F [AZD4320] + Cn1cnc2c(F)c(Nc3ccc(Br)cc3Cl)c(C(=O)NOCCO)cc21 [Selumetinib] (first compound max 1 µM, 7x7, partner max 3 µM)",0.951,0.379,0.531,0.811,0.955,0.449,0.254,0.583,0.533,0.448,1,0.406,0.55,0.563,0.665,0.775,0.941,0.422,0.838,0.926
"C=CCn1c(=O)c2cnc(Nc3ccc(N4CCN(C)CC4)cc3)nc2n1-c1cccc(C(C)(C)O)n1 [AZD1775] + O=C(c1cc(Cc2n[nH]c(=O)c3ccccc23)ccc1F)N1CCN(C(=O)C2CC2)CC1 [Olaparib] (first compound max 1 µM, partner max 10 µM)",0.496,0.511,0.914,0.584,0.93,0.444,0.721,0.229,0.924,0.819,0.845,0.354,0.431,0.532,0.326,0.496,0.662,0.601,0.166,0.303
"CCc1c2c(nc3ccc(O)cc13)-c1cc3c(c(=O)n1C2)COC(=O)[C@]3(O)CC [SN-38] + CN(C)CCCOc1ccc(-c2ccc3ncc4c(c3c2)n(C2CCOCC2)c(=O)n4C)cn1 [AZD0156] (first compound max 0.3 µM, 7x7, partner max 1 µM)",0.917,0.523,0.802,0.764,0.549,0.603,0.817,0.294,0.63,0.83,0.822,0.726,0.24,0.449,0.656,0.839,0.887,0.397,0.281,0.509
"COc1cccc2c1C(=O)c1c(O)c3c(c(O)c1C2=O)C[C@@](O)(C(=O)CO)C[C@@H]3O[C@H]1C[C@H](N)[C@H](O)[C@H](C)O1 [Doxorubicin] + Cc1cc2ncnn2cc1Nc1ncc2c(n1)n(C1CCOCC1)c(=O)n2C [AZD7648] (first compound max 1 µM, 7x7, partner max 10 µM)",0.826,0.455,0.904,0.602,0.911,0.573,0.76,0.568,0.905,0.89,0.799,0.95,0.405,0.426,0.75,0.303,0.77,0.546,0.431,0.564
"CN(CCO)CC[C@H](CSc1ccccc1)Nc1ccc(S(=O)(=O)NC(=O)c2ccc(N3CCC([C@@H](O)c4ccccc4-c4ccc(Cl)cc4)CC3)cc2)cc1S(=O)(=O)C(F)(F)F [AZD4320] + Cc1cc2ncnn2cc1Nc1ncc2c(n1)n(C1CCOCC1)c(=O)n2C [AZD7648] (first compound max 1 µM, 7x7, partner max 10 µM)",0.811,0.0888,0.22,0.126,0.984,0.268,0.136,0.749,0.586,0.191,1,0.374,0.759,0.156,0.566,0.737,0.646,0.191,0.122,0.16
"CC1(C)CCC(CN2CCN(c3ccc(C(=O)NS(=O)(=O)c4ccc(NCC5CCOCC5)c([N+](=O)[O-])c4)c(Oc4cnc5[nH]ccc5c4)c3)CC2)=C(c2ccc(Cl)cc2)C1 [Venetoclax] + C1CN(CCC1(C(=O)N[C@@H](CCO)C2=CC=C(C=C2)Cl)N)C3=NC=NC4=C3C=CN4 [Capivasertib] (first compound max 1 µM, 7x7, partner max 3 µM)",0.0317,0.297,0.547,0.162,0.84,0.47,0.0982,0.663,0.36,0.755,0.775,0.422,0.111,0.161,0.157,0.23,0.187,0.25,0.123,0.178
"COc1cccc(OCCCN)c1-c1cc(Nc2cnc(C#N)cn2)n[nH]1 [Prexasertib] + C[C@@H]1COCCN1C2=NC(=NC(=C2)C3(CC3)[S@](=N)(=O)C)C4=C5C=CNC5=NC=C4 [AZD6738] (first compound max 1 µM, 7x7, partner max 10 µM)",0.847,0.633,0.913,0.764,1,0.61,0.536,0.45,0.971,0.773,0.952,0.644,0.314,0.773,0.589,0.676,0.656,0.649,0.33,0.833
"CC1(C)CCC(CN2CCN(c3ccc(C(=O)NS(=O)(=O)c4ccc(NCC5CCOCC5)c([N+](=O)[O-])c4)c(Oc4cnc5[nH]ccc5c4)c3)CC2)=C(c2ccc(Cl)cc2)C1 [Venetoclax] + CCN(CCO)CCCOc1ccc2c(Nc3cc(CC(=O)Nc4cccc(F)c4)[nH]n3)ncnc2c1 [AZD2811] (first compound max 1 µM, 7x7, partner max 1 µM)",0.221,0.365,0.312,0.267,0.942,0.32,0.322,0.231,0.34,0.606,0.893,0.232,0.229,0.194,0.184,0.429,0.583,0.185,0.226,0.152
"CN(CCO)CC[C@H](CSc1ccccc1)Nc1ccc(S(=O)(=O)NC(=O)c2ccc(N3CCC([C@@H](O)c4ccccc4-c4ccc(Cl)cc4)CC3)cc2)cc1S(=O)(=O)C(F)(F)F [AZD4320] + C=CCn1c(=O)c2cnc(Nc3ccc(N4CCN(C)CC4)cc3)nc2n1-c1cccc(C(C)(C)O)n1 [AZD1775] (first compound max 1 µM, partner max 1 µM)",0.834,0.776,0.953,0.507,0.997,0.572,0.716,0.665,1,0.931,1,0.404,0.785,0.828,0.712,0.872,0.867,0.79,0.103,0.331
